In patent US20110184018A1, “METHOD FOR TREATING PERIPHERAL NEUROPATHIC PAIN” (LOHOCLA RESEARCH CORPORATION, priority 2005, published 2011):

Key:
CB1 receptor = biological target: T1, CB1 receptor (Homo sapiens, UniProt P21554); assay: cAMP accumulation in HEK293 cells transfected with AC7, D1AR, CB1R; format: cell-based; settings: dopamine stimulated cAMP
T1 construct: expressed in transfected cells; host or cells: HEK293 cells (ATCC), calcium phosphate transfection
Procedure: HEK293 cells were obtained from American Type Culture Collection (Manassas, Va.). Cells were cultured in 225 mL flasks containing 39 mL of MEM containing 10% fetal bovine serum, penicillin (50 μg/mL), streptomycin (50 μg/mL), and neomycin (100 μg/mL). The flasks were maintained in a humidified atmosphere of 95% air and 5% CO2 at about 37° C. Transfection was performed by the method of DNA precipitation with calcium phosphate 1 day after HEK 293 cells were transferred to small flasks (75 mL) at the density of approximately 60 to 80% confluence. […] Transfection efficiency was routinely monitored by observing the expression of enhanced green fluorescent protein (GFP) by an epifluorescence microscope equipped with a filter set (excitation, 480/40 nm; emission, 535/50 nm) and a dichroic mirror (T89002bs; Chroma Technology, Rockingham, Vt.). […]
To determine the effect of the DCUK-OEt or other compounds on the function of the CB1 receptor, the cells were treated with the phosphodiesterase inhibitor, IBMX (500 μM), for 10 minutes at 37° C., followed by the addition of D1A receptor agonist, dopamine (DA) (1 μM), in the presence of a known CB1 agonist or agonist, plus a CB1 antagonist for 5 minutes. […] ATP and cAMP were separated through Dowex 50 and neutral alumina columns as is known in the art, and quantified by liquid scintillation counting. […]

C57BL/6 mice = assay: Elevated-plus maze (anxiolytic effects); format: in vivo, mouse; settings: i.p., about 60 minutes before testing
Procedure: In Panel A, mice were administered (i.p.) the indicated doses of DCUK-OEt about 60 minutes before behavioral testing on the elevated-plus maze. The number of times entered and the time spent in the open arms of the plus-maze were recorded. In Panel B, groups of mice were administered (i.p.) 50 mg/kg DCUK-OEt in an injection vehicle (5% TWEEN 80/0.5% methylcellulose) and tested at the indicated times with comparison to mice injected with vehicle alone. In both panels, mice treated with vehicle alone (i.e., absent the DCUKA compound) were tested 60 minutes after injection of vehicle. A greater percent of time spent in the open arms indicates an anxiolytic action of the drug. Significant differences in the percent time spent on the open arms of the maze are evident at doses as low as 25mg/kg. […]
The anxiolytic effect of the DCUK-OMe was tested in C57BL/6 mice with an elevated-plus maze apparatus. […] A trained observer blind to the treatment conditions scored the number of entries into open arms and the number of entries into closed arms over a 5-minutes period. […] The percentage of open arm entries (open arm entries/total arm entries) was calculated for each animal and used as a measure of the anxiolytic/anxiogenic effects of drug treatment. In addition, the total number of entries made into the […] was recorded as a measure of drug effects on locomotor activity. […]

T1 sequence (P21554 whole entry): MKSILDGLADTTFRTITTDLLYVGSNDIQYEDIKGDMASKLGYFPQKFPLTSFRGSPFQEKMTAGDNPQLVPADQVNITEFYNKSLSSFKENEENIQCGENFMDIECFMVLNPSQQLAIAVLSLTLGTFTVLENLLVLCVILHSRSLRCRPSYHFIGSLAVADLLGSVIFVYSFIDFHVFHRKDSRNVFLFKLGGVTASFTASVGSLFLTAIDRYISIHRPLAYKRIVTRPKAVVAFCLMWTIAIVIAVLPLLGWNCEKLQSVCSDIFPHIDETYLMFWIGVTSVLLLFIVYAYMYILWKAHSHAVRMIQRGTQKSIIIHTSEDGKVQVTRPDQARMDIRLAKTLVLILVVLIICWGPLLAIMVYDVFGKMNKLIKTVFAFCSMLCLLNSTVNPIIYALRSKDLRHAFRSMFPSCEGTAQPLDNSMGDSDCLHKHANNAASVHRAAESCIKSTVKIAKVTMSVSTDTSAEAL

CCOC(=O)c1cc(NC(=O)N(c2ccccc2)c2ccccc2)c2c(Cl)cc(Cl)cc2n1 [DCUK-OEt, N,N-diphenyl-4-ureido-5,7-dichloro-2-carboxy quinoline ethyl ester]
functional action at CB1 receptor (CB1 receptor): acts like an agonist at the CB1 receptor | lowest dose with significant differences in percent time spent on the open arms (C57BL/6 mice): 25 mg/kg
